Laboratory results from patent publication US12252701B2, “Chimeric antigen receptor T cell therapy” (KITE PHARMA, INC., priority 2020, dated 2025).
Read-outs that look alike come from different tables or passages of the source.

Assays:
[1] = test system: NALM6.GFP.LUC.CD19 target cells; test: Serial killing assay; assay type: cell-based, human
Protocol: CD19 CAR-T cells were thawed in RPMI media supplemented with HEPES, Penicillin/Streptomycin/L-Glutamine and 10% FBS and rested overnight. The following day, drugs were serially diluted and prepared in 96-well plates. Rested T cells were counted and normalized so that 25,000 or 8,333 T cells were plated with 25,000 NALM6.GFP.LUC.CD19 target cells (1:1 or 1:3 Effector:Target ratio) in the prepared 96-well plates. At 16 hour post-incubation and every 3-4 days, T cell killing of targets was measured via luciferase detection. D-luciferin substrate was added to the co-culture wells at a final concentration of 0.14 mg/mL and plates were incubated at 37° C. in the dark for 10 minutes. Luminescent signal was read immediately after in a VarioSkan™ LUX microplate reader. T cell-mediated cytotoxicity was calculated as follows: % Cytotoxicity=[1−luciferase signal of (sample of interest/target alone control)]*100. Afterwards, co-cultures were stained with LIVE/DEAD and antibodies against CD4, CD8 and KIP-1 and then washed. Cells were then analyzed and quantified via the Attune NxT flow cytometer. T cells were then repeatedly stimulated with fresh 25,000 target cells, and this process was repeated every 3-4 days.

[2] = cited from earlier work
CAR-T cells = test: CAR-T cell expansion assay (KIP-1 or CD3/CD28 stimulation); conditions: for % viability: CD3/CD28
Protocol: 96-well plates were coated with 100 μl of KIP-1 antibody per well at 1 μg/ml in PBS and plates were incubated at 4° C. overnight. CAR-T cells were thawed and were rested in ImmunoCult expansion medium and incubated overnight at 37° C. Cells were then counted and resuspended at 2 million cells/ml and seed at 200,000 cells per well in 100 μl of expansion medium with 10 ng/ml recombinant IL2. For groups treated with KIP-1, 100 μl of expansion medium were added with 2× final drug dilutions. For CD3/CD28 treated groups, 100 μl of expansion media were added with 2× final drug dilutions containing 25 μl/ml of CD3/CD28 T cell activator from StemCell Technologies. Cells were then incubated at 37° C. After 4 days, cells were counted and diluted 1 to 8-fold in expansion media and then transferred to a 24-well plate. Cell counts were repeated at day 7 and transferred to T25 flasks. On day 11, all cells were harvested and counted.

Nalm-6 luc = test: CAR-T cell killing assay (luciferase viability of tumor cells)
CD19 CAR T cells = test: CAR T cell cytokine production (Luminex) under CD19 K562, KIP-1 or CD2/3/28 stimulation; conditions: for IC50: Homo sapiens, T-cell
Protocol: Cryopreserved healthy donor CLP CD19 CAR T cells were thawed and rested overnight in 100 U/ml of IL-2 at 1×10^6/ml. 2.5×10^5 CD19 CART cells were plated in 96-well RB plate wells in a total volume of 200 μl of R10 culture media. […] CD19 CART cell cytokine production was allowed to proceed through 72 hours in the presence of stimulator and JAKi or steroid. Following 72 h of culture, 100 μl of the cell supernatant of each well were harvested and stored at −80° C. for later Luminex/Bioplex-200 cytokine analysis. Briefly, stored supernatants were thawed and 50 μl of the sample was assayed for cytokines using a ThermoFisher Procarta Plex 19-plex human cytokine assay kit (ThermoFisher, Carlsbad, CA) according to kit manufacturer's instructions and detected using a BioRad Bioplex-200 instrument. The data points generated from the luminex cytokine assay were transferred to a GraphPad PRISM IC50 dose-response curve analysis to generate IC50 or potency values for the JAKi's and steroids tested.

[3] = E:T ratio 1:3, all doses tested

O=C(Nc1nc2cccc(-c3ccc(CN4CCS(=O)(=O)CC4)cc3)n2n1)C1CC1 [filgotinib]
T-cell counts ([1]; E:T ratio 1:1): increased T-cell counts in a dose-dependent manner
serial killing ([1]; E:T ratio 1:1): enhanced serial killing
T-cell counts [1, 3]: no negative impacts were observed
serial killing [1, 3]: no negative impacts
Cmax ([2]; clinical dosing, patient sera, repeat dose studies): 1200 ng/mL
Protein binding ([2]; plasma protein binding, reported): ~42%
% viability (CAR-T cells; dose 500 nM, day 4): 58.7%
% viability (CAR-T cells; dose 500 nM, day 8): 65.7%
% viability (CAR-T cells; dose 500 nM, day 12): 84.5%
% viability (CAR-T cells; dose 1000 nM, day 4): 73.1%
% viability (CAR-T cells; dose 1000 nM, day 8): 70.9%
% viability (CAR-T cells; dose 1000 nM, day 12): 81.6%
effect on T cell expansion (CAR-T cells; at the doses tested (Table 40)): little to no effect
Mean tumor cell death (%) (Nalm-6 luc; E:T ratio 1:1, dose 250 nM): 96.89%
Mean tumor cell death (%) (Nalm-6 luc; E:T ratio 1:1, dose 500 nM): 97.54%
Mean tumor cell death (%) (Nalm-6 luc; E:T ratio 1:1, dose 1000 nM): 92.04%
Mean tumor cell death (%) (Nalm-6 luc; E:T ratio 1:3, dose 250 nM): 55.79%
Mean tumor cell death (%) (Nalm-6 luc; E:T ratio 1:3, dose 500 nM): 48.50%
Mean tumor cell death (%) (Nalm-6 luc; E:T ratio 1:3, dose 1000 nM): 35.36%
Mean tumor cell death (%) (Nalm-6 luc; E:T ratio 1:9, dose 250 nM): 20.47%
Mean tumor cell death (%) (Nalm-6 luc; E:T ratio 1:9, dose 500 nM): 14.82%
Mean tumor cell death (%) (Nalm-6 luc; E:T ratio 1:9, dose 1000 nM): 9.49%
suppression of cytokine production from CAR T cells (breadth and magnitude) (CD19 CAR T cells): less effective in the breadth of cytokines suppressed and its potency to suppress particular cytokines
Suppression of cytokine production, GMCSF (IC50) (CD19 CAR T cells; CD3/CD28 stimulation, 72 h): Suppress
IC50 (CD19 CAR T cells; 72 h, read-out: Suppression of cytokine production, GMCSF (IC50), K562-CD19 stimulation, 72 h): > 10000 nM
IC50 (CD19 CAR T cells; 72 h, read-out: Suppression of cytokine production, GMCSF (IC50), KIP-1 stimulation, 72 h): 6440 nM
IC50 (CD19 CAR T cells; 72 h, read-out: Suppression of cytokine production, GzB (IC50), CD3/CD28 stimulation, 72 h): 7650 nM
IC50 (CD19 CAR T cells; 72 h, read-out: Suppression of cytokine production, GzB (IC50), K562-CD19 stimulation, 72 h): > 10000 nM
IC50 (CD19 CAR T cells; 72 h, read-out: Suppression of cytokine production, GzB (IC50), KIP-1 stimulation, 72 h): > 10000 nM
IC50 (CD19 CAR T cells; 72 h, read-out: Suppression of cytokine production, IFNg (IC50), CD3/CD28 stimulation, 72 h): > 10000 nM
IC50 (CD19 CAR T cells; 72 h, read-out: Suppression of cytokine production, IFNg (IC50), K562-CD19 stimulation, 72 h): > 10000 nM
IC50 (CD19 CAR T cells; 72 h, read-out: Suppression of cytokine production, IFNg (IC50), KIP-1 stimulation, 72 h): > 10000 nM
IC50 (CD19 CAR T cells; 72 h, read-out: Suppression of cytokine production, IL-2Ra (IC50), CD3/CD28 stimulation, 72 h): 1890 nM
IC50 (CD19 CAR T cells; 72 h, read-out: Suppression of cytokine production, IL-2Ra (IC50), K562-CD19 stimulation, 72 h): 4820 nM
IC50 (CD19 CAR T cells; 72 h, read-out: Suppression of cytokine production, IL-2Ra (IC50), KIP-1 stimulation, 72 h): 277 nM
IC50 (CD19 CAR T cells; 72 h, read-out: Suppression of cytokine production, IL-6 (IC50), CD3/CD28 stimulation, 72 h): 1710 nM
IC50 (CD19 CAR T cells; 72 h, read-out: Suppression of cytokine production, IL-6 (IC50), KIP-1 stimulation, 72 h): 716 nM
IC50 (CD19 CAR T cells; 72 h, read-out: Suppression of cytokine production, IL-8 (IC50), CD3/CD28 stimulation, 72 h): > 10000 nM
IC50 (CD19 CAR T cells; 72 h, read-out: Suppression of cytokine production, IL-8 (IC50), K562-CD19 stimulation, 72 h): 543 nM
IC50 (CD19 CAR T cells; 72 h, read-out: Suppression of cytokine production, IL-8 (IC50), KIP-1 stimulation, 72 h): 564 nM
IC50 (CD19 CAR T cells; 72 h, read-out: Suppression of cytokine production, IL-10 (IC50), CD3/CD28 stimulation, 72 h): 2010 nM
IC50 (CD19 CAR T cells; 72 h, read-out: Suppression of cytokine production, IL-10 (IC50), K562-CD19 stimulation, 72 h): 397 nM
IC50 (CD19 CAR T cells; 72 h, read-out: Suppression of cytokine production, IL-10 (IC50), KIP-1 stimulation, 72 h): 191 nM
IC50 (CD19 CAR T cells; 72 h, read-out: Suppression of cytokine production, MCP-1 (IC50), CD3/CD28 stimulation, 72 h): 563 nM
IC50 (CD19 CAR T cells; 72 h, read-out: Suppression of cytokine production, MCP-1 (IC50), K562-CD19 stimulation, 72 h): 858 nM
IC50 (CD19 CAR T cells; 72 h, read-out: Suppression of cytokine production, MCP-1 (IC50), KIP-1 stimulation, 72 h): 559 nM
IC50 (CD19 CAR T cells; 72 h, read-out: Suppression of cytokine production, MIG (IC50), CD3/CD28 stimulation, 72 h): > 10000 nM
IC50 (CD19 CAR T cells; 72 h, read-out: Suppression of cytokine production, MIG (IC50), K562-CD19 stimulation, 72 h): 1570 nM
IC50 (CD19 CAR T cells; 72 h, read-out: Suppression of cytokine production, MIG (IC50), KIP-1 stimulation, 72 h): 1380 nM
IC50 (CD19 CAR T cells; 72 h, read-out: Suppression of cytokine production, MIP-1a (IC50), CD3/CD28 stimulation, 72 h): > 10000 nM
IC50 (CD19 CAR T cells; 72 h, read-out: Suppression of cytokine production, MIP-1a (IC50), K562-CD19 stimulation, 72 h): > 10000 nM
IC50 (CD19 CAR T cells; 72 h, read-out: Suppression of cytokine production, MIP-1a (IC50), KIP-1 stimulation, 72 h): > 10000 nM
IC50 (CD19 CAR T cells; 72 h, read-out: Suppression of cytokine production, MIP-1b (IC50), CD3/CD28 stimulation, 72 h): > 10000 nM
IC50 (CD19 CAR T cells; 72 h, read-out: Suppression of cytokine production, MIP-1b (IC50), K562-CD19 stimulation, 72 h): 9820 nM
IC50 (CD19 CAR T cells; 72 h, read-out: Suppression of cytokine production, MIP-1b (IC50), KIP-1 stimulation, 72 h): > 10000 nM
IC50 (CD19 CAR T cells; 72 h, read-out: Suppression of cytokine production, Perforin (IC50), CD3/CD28 stimulation, 72 h): 5460 nM
IC50 (CD19 CAR T cells; 72 h, read-out: Suppression of cytokine production, Perforin (IC50), K562-CD19 stimulation, 72 h): > 10000 nM
IC50 (CD19 CAR T cells; 72 h, read-out: Suppression of cytokine production, Perforin (IC50), KIP-1 stimulation, 72 h): 2110 nM
IC50 (CD19 CAR T cells; 72 h, read-out: Suppression of cytokine production, TNFa (IC50), CD3/CD28 stimulation, 72 h): 793 nM
IC50 (CD19 CAR T cells; 72 h, read-out: Suppression of cytokine production, TNFa (IC50), K562-CD19 stimulation, 72 h): 7230 nM
IC50 (CD19 CAR T cells; 72 h, read-out: Suppression of cytokine production, TNFa (IC50), KIP-1 stimulation, 72 h): 2240 nM
Suppression of cytokine production, IL-6 (IC50) (CD19 CAR T cells; K562-CD19 stimulation, 72 h): Suppress
